According to patent US20030166932A1 (priority 2002, published 2003):
pEC50, pKi: −log10 of the molar value.

What was measured:
RARβ = molecular target: T1, RARβ (Homo sapiens, UniProt P10826); assay: ligand binding assay; settings: read-out: RAR Bind. Ki (nM) β
T1 sequence (P10826 1-455): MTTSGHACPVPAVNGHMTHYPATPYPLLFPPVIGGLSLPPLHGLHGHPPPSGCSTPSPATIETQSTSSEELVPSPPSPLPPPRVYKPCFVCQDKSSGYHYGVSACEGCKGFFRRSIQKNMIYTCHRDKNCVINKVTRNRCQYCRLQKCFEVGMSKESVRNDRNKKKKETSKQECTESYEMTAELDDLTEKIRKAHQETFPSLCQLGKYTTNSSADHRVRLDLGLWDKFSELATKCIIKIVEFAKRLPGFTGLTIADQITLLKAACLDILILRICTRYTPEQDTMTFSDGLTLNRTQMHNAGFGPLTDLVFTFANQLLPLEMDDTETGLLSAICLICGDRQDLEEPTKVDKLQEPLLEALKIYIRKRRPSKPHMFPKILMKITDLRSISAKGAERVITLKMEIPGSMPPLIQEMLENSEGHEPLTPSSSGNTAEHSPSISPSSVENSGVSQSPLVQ
Text: (§1) The results obtained in this assay are expressed in EC50 numbers, as they are also in the chimeric receptor transactivation assay. The results of ligand binding assay are expressed in Kd numbers.
(§2) Particularly, the transactivation data pertaining to RAR receptors were obtained in the chimeric assay, and the data pertaining to transactivation of RXR receptors were obtained in the holoreceptor transactivation assay.

RXRβ [1] = molecular target: T2, RXRβ (UniProt P28704); assay: ligand binding assay; settings: read-out: RXR Bind Ki (nM) β
T2 sequence (P28704 1-520): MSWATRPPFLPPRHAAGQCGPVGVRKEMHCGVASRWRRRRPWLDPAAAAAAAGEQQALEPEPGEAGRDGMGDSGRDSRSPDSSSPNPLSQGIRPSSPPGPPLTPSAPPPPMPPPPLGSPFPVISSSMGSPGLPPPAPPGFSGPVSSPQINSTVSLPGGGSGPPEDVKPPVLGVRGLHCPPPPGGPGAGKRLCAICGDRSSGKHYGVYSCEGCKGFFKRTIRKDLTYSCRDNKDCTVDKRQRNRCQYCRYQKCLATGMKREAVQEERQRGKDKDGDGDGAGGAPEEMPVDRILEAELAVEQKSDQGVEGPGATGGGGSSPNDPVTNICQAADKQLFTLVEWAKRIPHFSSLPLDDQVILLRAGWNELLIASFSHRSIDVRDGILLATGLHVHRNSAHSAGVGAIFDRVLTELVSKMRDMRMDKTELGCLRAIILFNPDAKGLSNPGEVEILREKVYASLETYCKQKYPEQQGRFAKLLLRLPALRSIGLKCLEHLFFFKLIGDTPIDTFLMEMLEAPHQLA
Text: as §1, §2

RARγ = molecular target: T3, RARγ (Homo sapiens, UniProt P13631); assay: ligand binding assay; settings: read-out: RAR Bind. Ki (nM) Y
T3 sequence (P13631 1-454): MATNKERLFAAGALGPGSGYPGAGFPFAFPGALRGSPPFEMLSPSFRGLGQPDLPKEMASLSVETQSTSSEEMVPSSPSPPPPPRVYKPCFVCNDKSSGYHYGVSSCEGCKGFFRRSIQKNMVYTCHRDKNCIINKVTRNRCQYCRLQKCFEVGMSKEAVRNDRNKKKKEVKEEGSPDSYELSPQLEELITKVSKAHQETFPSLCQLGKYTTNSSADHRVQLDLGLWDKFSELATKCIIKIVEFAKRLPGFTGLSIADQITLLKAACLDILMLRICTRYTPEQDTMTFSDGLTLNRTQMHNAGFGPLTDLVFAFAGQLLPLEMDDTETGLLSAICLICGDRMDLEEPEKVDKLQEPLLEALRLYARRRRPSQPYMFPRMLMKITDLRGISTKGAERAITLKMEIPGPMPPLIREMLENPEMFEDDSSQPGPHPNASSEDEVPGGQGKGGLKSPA
Text: as §1, §2

RXRα [2] = molecular target: T4, RXRα (Homo sapiens, UniProt P19793); assay: ligand binding assay
T4 sequence (P19793 1-462): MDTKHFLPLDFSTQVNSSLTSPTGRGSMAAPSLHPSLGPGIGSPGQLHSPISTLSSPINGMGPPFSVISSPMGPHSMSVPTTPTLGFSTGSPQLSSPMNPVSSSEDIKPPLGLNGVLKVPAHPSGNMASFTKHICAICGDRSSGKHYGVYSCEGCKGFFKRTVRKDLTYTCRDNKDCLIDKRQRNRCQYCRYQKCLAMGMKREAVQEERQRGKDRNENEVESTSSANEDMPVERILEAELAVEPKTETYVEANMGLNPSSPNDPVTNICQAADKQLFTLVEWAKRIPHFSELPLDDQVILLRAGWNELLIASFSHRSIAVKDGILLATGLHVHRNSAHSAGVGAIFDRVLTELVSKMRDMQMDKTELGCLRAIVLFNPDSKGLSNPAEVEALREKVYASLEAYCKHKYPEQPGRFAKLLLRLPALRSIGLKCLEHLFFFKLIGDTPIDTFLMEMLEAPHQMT
Text: as §1, §2

RXRβ [3] = molecular target: T2, RXRβ; assay: holoreceptor transactivation assay; assay type: cell-based; settings: for EC50: NA = Not Active, read-out: RXR Trans. EC50 (nM) β; for % efficacy, RXR Trans. β: relative to 10^−6 M AGN 194204
Text: as §1, §2

RXRγ = molecular target: T5, RXRγ (UniProt P28705); assay: holoreceptor transactivation assay; assay type: cell-based; settings: for EC50: NA = Not Active, read-out: RXR Trans. EC50 (nM) Y; for % efficacy, RXR Trans. Y: relative to 10^−6 M AGN 194204
T5 sequence (P28705 1-463): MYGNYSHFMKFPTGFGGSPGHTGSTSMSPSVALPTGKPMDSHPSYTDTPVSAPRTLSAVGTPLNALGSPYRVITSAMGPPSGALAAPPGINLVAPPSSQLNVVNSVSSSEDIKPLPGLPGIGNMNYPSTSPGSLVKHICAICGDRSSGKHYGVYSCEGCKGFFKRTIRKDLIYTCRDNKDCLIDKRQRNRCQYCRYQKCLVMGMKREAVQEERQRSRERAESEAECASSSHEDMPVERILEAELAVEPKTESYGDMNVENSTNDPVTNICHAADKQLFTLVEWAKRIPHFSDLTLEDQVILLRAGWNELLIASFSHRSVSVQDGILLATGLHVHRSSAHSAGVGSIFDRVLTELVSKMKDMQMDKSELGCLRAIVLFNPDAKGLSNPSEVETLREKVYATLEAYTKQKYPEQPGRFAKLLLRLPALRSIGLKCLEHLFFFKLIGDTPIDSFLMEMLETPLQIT
Text: as §1, §2

RXRα [4] = molecular target: T4, RXRα; assay: holoreceptor transactivation assay; settings: for Emax: read-out: % efficacy, RXR Trans. α
Text: as §1, §2

SMILES | Ki (RARβ) | Ki (RXRβ [1]) | Ki (RARγ) | pKi (RXRα [2]) | EC50 (RXRβ [3]) | % efficacy, RXR Trans. β (RXRβ [3]) | EC50 (RXRγ) | % efficacy, RXR Trans. Y (RXRγ) | pEC50 (RXRα [4]) | Emax (RXRα [4])
CCCCCCOc1cc2c(cc1N(CC)c1ccc(C(=O)O)cc1)C(C(C)C)=CCC2(C)C [Compound 153, 4-[Ethyl-(3-n-hexyloxy-8-isopropyl-5,5-dimethyl-5,6-dihydronaphthalen-2-yl)amino]benzoic acid] | 4800 nM | 106 nM | 8900 nM | 7.66 |  |  |  |  |  | 
CCN(c1ccc(C(=O)O)cc1)c1cc2c(cc1C)C(C)(C)CC=C2C(C)C [Compound 25, 4-[Ethyl(8-isopropyl-3,5,5-trimethyl-5,6-dihydronaphthalen-2-yl)amino]benzoic acid] | 6400 nM | 20 nM | 4400 nM | 8.70 | 0.9 nM | (96) % | 0.2 nM | (105) % | > 10.00 | 97%
CCC1=CCC(C)(C)c2cc(C)c(N(CC)c3ccc(C(=O)O)cc3)cc21 [Compound 24, 4-[Ethyl(8-ethyl-3,5,5-trimethyl-5,6-dihydronaphthalen-2-yl)amino]benzoic acid] | 9100 nM | 66 nM | 13000 nM | 7.54 | 10 nM | (96) % | 2 nM | (102) % | 9.00 | 100%
CCCCCCOc1cc2c(cc1N(CCC)c1ccc(C(=O)O)cc1)C(C)=CCC2(C)C [Compound 145, 4-[(3-n-Hexyloxy-5,5,8-trimethyl-5,6-dihydronaphthalen-2-yl)-n-propylamino]benzoic acid] | 771 nM | 475 nM | 6000 nM | 6.64 |  |  | > 1000 nM | (10) % |  | 
CCCN(c1ccc(C(=O)O)cc1)c1cc2c(cc1OCc1ccccc1)C(C)(C)CC=C2C [Compound 147, 4-[(3-Benzyloxy-5 5,8-trimethyl-5,6-dihydronaphthalen-2-yl)-n-propylamino]benzoic acid] | 4800 nM | 501 nM | 15000 nM | 6.62 |  |  | 280 nM | (13) % |  | 
Cc1cc2c(cc1N(C)c1ccc(C(=O)O)cc1)C(C)(C)CC=C2C(C)C [Compound 52, 4-[Methyl-(5-isopropyl-3,8,8-trimethyl-7,8-dihydronaphthalen-2-yl)amino]benzoic acid] | > 10000 nM | 2700 nM | > 10000 nM | 5.77 | > 1000 nM | (25) % |  | (855) % |  | 75%
CCCCCCOc1cc2c(cc1N(CC)c1ccc(C(=O)O)cc1)C(C)=CCC2(C)C [Compound 142, 4-[Ethyl-(3-n-hexyloxy-5,5,8-trimethyl-5,6-dihydronaphthalen-2-yl)amino]benzoic Acid] | 1000 nM | 111 nM | > 1000 nM | 6.72 |  |  |  |  |  | 
CCC1=CCC(C)(C)c2cc(N(CC)c3ccc(C(=O)O)cc3)c(C)cc21 [Compound 59, 4-[Ethyl(5-ethyl-3,8,8-trimethyl-7,8-dihydronaphthalen-2-yl)amino]benzoic acid] | > 10000 nM |  | > 10000 nM | 6.55 |  | (100) % |  | (100) % |  | 100%
CCCCCCCOc1cc2c(cc1N(CC)c1ccc(C(=O)O)cc1)C(C)=CCC2(C)C [Compound 143, 4[Ethyl-(3-n-heptyloxy-5,5,8-trimethyl-5,6-dihydronaphthalen-2-yl)amino]benzoic acid] | 1700 nM | 449 nM | 8400 nM | 6.76 |  |  |  |  |  | 
CCN(c1ccc(C(=O)O)cc1)c1cc2c(cc1OCc1ccccc1)C(C)(C)CC=C2C [Compound 144, 4-[(3-Benzyloxy-5,5,8-trimethyl-5,6-dihydronaphthalen-2-yl)ethylamino]benzoic acid] | 2700 nM | 224 nM | 8100 nM | 7.11 |  |  |  |  |  | 
CCC1=CCC(C)(C)c2cc(N(CC)c3ccc(C(=O)O)cc3)ccc21 [Compound 75, 4-[Ethyl-(5-ethyl-8,8-dimethyl-7,8-dihydro-naphthalen-2-yl)-amino]-benzoic acid] | > 10000 nM | 806 nM | > 10000 nM | 6.35 |  | (75) % |  | (95) % | 6.50 | 100%
CC1=CCC(C)(C)c2cc(N(CC3CC3)c3ccc(C(=O)O)cc3)c(C)cc21 [Compound 47, 4-[Cyclopropylmethyl(3,5,8,8-tetramethyl-7,8-dihydronaphthalen-2-yl)amino]benzoic acid] | > 10000 nM | > 1000 nM | > 10000 nM | 5.60 |  |  |  | (70) % |  | 65%
CCCCCCCOc1cc2c(cc1N(CCC)c1ccc(C(=O)O)cc1)C(C)=CCC2(C)C [Compound 146, 4-[(3-n-Heptyloxy-5 5,8-trimethyl-5,6-dihydronaphthalen-2-yl)-n-propylamino]benzoic acid] | 576 nM | 429 nM | 2800 nM | 6.69 |  |  |  |  |  | 
CCN(c1ccc2c(c1)C(C(C)(C)C)=CCC2(C)C)c1ccc(C(=O)O)cn1 [Compound 173, 6-[(8-t-Butyl-5,5-dimethyl-5,6-dihydro-naphthalen-2-yl)-ethyl-amino]-nicotinic acid] |  |  |  |  | 9 nM | (132) % | 2 nM | (125) % | 9.00 | 120%
CCN(c1ccc(C(=O)O)cc1)c1cc2c(cc1C)C(C)(C)CC=C2C [Compound 23, 4-[Ethyl(3,5,5,8-tetramethyl-5,6-dihydronaphthalen-2-yl)amino]benzoic acid] | 16000 nM | 309 nM |  | 8.10 | 149 nM | (101) % | 41 nM | (119) % | 7.68 | 101%
